In US9828360B2 (Array BioPharma Inc., priority 2012, dated 2017):

target: TrkA (Homo sapiens, UniProt P04629); assay: TrkA LanthaScreen Eu Kinase Binding Assay; design: 6HIS tagged cytoplasmic domain from Invitrogen, Cat. No. PV3144; purchased Invitrogen PV3144; conditions: averaged IC50 values, read-out: TrkA Enzyme IC50
Procedure: TrkA binding activity was determined in a TrkA LanthaScreen™ Eu Kinase Binding Assay. 5 nM His-tagged recombinant human TrkA (6HIS tagged cytoplasmic domain from Invitrogen, Cat. No. PV3144) was incubated with 4 nM Alexa-Fluor® Tracer 236 (Invitrogen Cat. No. PV5592), 2 nM biotinylated anti-His (Invitrogen Cat. No. PV6090), and 2 nM europium-labeled Streptavidin (Invitrogen Cat. No. PV5899), in buffer (25 mM MOPS, pH 7.5, 5 mM MgCl2, 0.005% Triton X-100). Three fold serial dilutions of compounds of the invention in DMSO were added to a final percentage of 2% DMSO. After 60-minute incubation at 22° C., the reaction was measured using the EnVision mutlimode plate reader (PerkinElmer) via TR-FRET dual wavelength detection at […]. The percent of control was calculated using a ratiometric emission factor. The IC50 values were determined by fitting a four parameter model to the percent of control data.
Table A provides averaged IC50 values for compounds of the invention when tested in the assay of Example A, where A represents an averaged IC50 value <100 nM; and B represents an averaged IC50 value from 100 to 1,000 nM.

Sequence of TrkA (P04629 440-796 limits assumed): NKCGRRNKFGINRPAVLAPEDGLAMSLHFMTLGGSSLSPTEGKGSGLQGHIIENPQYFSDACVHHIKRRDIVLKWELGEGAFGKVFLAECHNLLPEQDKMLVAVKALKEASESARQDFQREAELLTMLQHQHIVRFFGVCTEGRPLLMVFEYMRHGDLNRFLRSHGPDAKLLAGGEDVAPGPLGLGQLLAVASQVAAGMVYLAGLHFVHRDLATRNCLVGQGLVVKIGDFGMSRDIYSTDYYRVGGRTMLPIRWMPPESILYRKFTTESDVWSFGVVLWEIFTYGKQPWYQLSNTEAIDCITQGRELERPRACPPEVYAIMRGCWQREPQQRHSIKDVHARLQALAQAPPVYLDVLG

`COCCN1C[C@@H](NC(=O)Nc2ccc(C)nc2-c2ccccc2)[C@H](c2cc(F)cc(F)c2)C1` [Example 31, 1-((3S,4R)-4-(3,5-difluorophenyl)-1-(2-methoxyethyl)pyrrolidin-3-yl)-3-(6-methyl-2-phenylpyridin-3-yl)urea] and `COCCN1C[C@@H](NC(=O)Nc2ccc(C)nc2-c2ccccc2)[C@H](c2ccc(F)cc2)C1` [Example 32, 1-((3S,4R)-4-(4-fluorophenyl)-1-(2-methoxyethyl)pyrrolidin-3-yl)-3-(6-methyl-2-phenylpyridin-3-yl)urea] cannot be ordered by IC50: less than 100 nM for the first, less than 100 nM for the second.

First: COCCN1C[C@@H](NC(=O)Nc2ccn(C)c(=O)c2-c2ccccc2)[C@H](c2ccc(F)c(F)c2)C1 [Example 33, 1-((3S,4R)-4-(3,4-difluorophenyl)-1-(2-methoxyethyl)pyrrolidin-3-yl)-3-(1-methyl-2-oxo-3-phenyl-1,2-dihydropyridin-4-yl)urea]
Second: COCCN1C[C@@H](NC(=O)Nc2c(-c3ccccc3)c(=O)n(C)n2C)[C@H](c2ccc(F)c(F)c2)C1 [Example 39, 1-((3S,4R)-4-(3,4-difluorophenyl)-1-(2-methoxyethyl)pyrrolidin-3-yl)-3-(1,2-dimethyl-5-oxo-4-phenyl-2,5-dihydro-1H-pyrazol-3-yl)urea]
The IC50 of the first is higher: 100 to 1000 nM for the first, less than 100 nM for the second.

`COCCN1C[C@@H](NC(=O)Nc2cc(=O)n(C)nc2-c2ccccc2)[C@H](c2ccc(F)c(F)c2)C1` [Example 34, 1-((3S,4R)-4-(3,4-difluorophenyl)-1-(2-methoxyethyl)pyrrolidin-3-yl)-3-(1-methyl-6-oxo-3-phenyl-1,6-dihydropyridazin-4-yl)urea] and `COCCN1C[C@@H](NC(=O)Nc2cc(=O)n(CC(F)(F)F)nc2-c2ccccc2)[C@H](c2ccc(F)c(F)c2)C1` [Example 35, 1-((3S,4R)-4-(3,4-difluorophenyl)-1-(2-methoxyethyl)pyrrolidin-3-yl)-3-(6-oxo-3-phenyl-1-(2,2,2-trifluoroethyl)-1,6-dihydropyridazin-4-yl)urea] fall in the same range of IC50: 100 to 1000 nM for the first, 100 to 1000 nM for the second.

`COCCN1C[C@@H](NC(=O)Nc2c(-c3ccccc3)nsc2C(N)=O)[C@H](c2ccc(F)c(F)c2)C1` [Example 36, 4-(3-((3S,4R)-4-(3,4-difluorophenyl)-1-(2-methoxyethyl)pyrrolidin-3-yl)ureido)-3-phenylisothiazole-5-carboxamide] and `COCCN1C[C@@H](NC(=O)Nc2sc(CO)nc2-c2ccccc2)[C@H](c2ccc(F)c(F)c2)C1` [Example 50] cannot be ordered by IC50: less than 100 nM for the first, less than 100 nM for the second.

`COCCN1C[C@@H](NC(=O)Nc2c(-c3ccccc3)nc(C)n2C)[C@H](c2ccc(F)c(F)c2)C1` [Example 38, 1-((3S,4R)-4-(3,4-difluorophenyl)-1-(2-methoxyethyl)pyrrolidin-3-yl)-3-(1,2-dimethyl-4-phenyl-1H-imidazol-5-yl)urea] and `COCCN1C[C@@H](NC(=O)Nc2sc(-c3ccccc3)nc2C)[C@H](c2ccc(F)c(F)c2)C1` [Example 45, 11-((3S,4R)-4-(3,4-difluorophenyl)-1-(2-methoxyethyl)pyrrolidin-3-yl)-3-(4-methyl-2-phenylthiazol-5-yl)urea] cannot be ordered by IC50: less than 100 nM for the first, less than 100 nM for the second.

First: CCn1c(=O)c(-c2ccccc2)c(NC(=O)N[C@@H]2CN(CCOC)C[C@H]2c2ccc(F)c(F)c2)n1C [Example 40, 1-((3S,4R)-4-(3,4-difluorophenyl)-1-(2-methoxyethyl)pyrrolidin-3-yl)-3-(1-ethyl-2-methyl-5-oxo-4-phenyl-2,5-dihydro-1H-pyrazol-3-yl)urea]
Second: COCCN1C[C@@H](NC(=O)Nc2nc(-c3ccccc3)nn2C)[C@H](c2ccc(F)c(F)c2)C1 [Example 54, 1-((3S,4R)-4-(3,4-difluorophenyl)-1-(2-methoxyethyl)pyrrolidin-3-yl)-3-(1-methyl-3-phenyl-1H-1,2,4-triazol-5-yl)urea]
The IC50 of the first is lower: less than 100 nM for the first, 100 to 1000 nM for the second.

First: COCCN1C[C@@H](NC(=O)Nc2oc(-c3ccccc3)nc2C)[C@H](c2ccccc2)C1 [Example 42, 1-((3S,4R)-1-(2-methoxyethyl)-4-phenylpyrrolidin-3-yl)-3-(4-methyl-2-phenyloxazol-5-yl)urea]
Second: COCCN1C[C@@H](NC(=O)Nc2sc(-c3ccccc3)nc2C)[C@H](c2ccccc2)C1 [Example 46, 1-((3S,4R)-1-(2-methoxyethyl)-4-phenylpyrrolidin-3-yl)-3-(4-methyl-2-phenylthiazol-5-yl)urea]
The IC50 of the first is higher: 100 to 1000 nM for the first, less than 100 nM for the second. The second is the more potent here.

`COCCN1C[C@@H](NC(=O)Nc2oc(C(C)C)nc2-c2ccccc2)[C@H](c2ccc(F)c(F)c2)C1` [Example 43, 1-((3S,4R)-4-(3,4-difluorophenyl)-1-(2-methoxyethyl)pyrrolidin-3-yl)-3-(2-isopropyl-4-phenyloxazol-5-yl)urea] and `COCCN1C[C@@H](NC(=O)Nc2sc(C(C)C)nc2-c2ccccc2)[C@H](c2ccc(F)c(F)c2)C1` [Example 47, 1-((3S,4R)-4-(3,4-difluorophenyl)-1-(2-methoxyethyl)pyrrolidin-3-yl)-3-(2-isopropyl-4-phenylthiazol-5-yl)urea] cannot be ordered by IC50: less than 100 nM for the first, less than 100 nM for the second.

Compared with `COCCN1C[C@@H](NC(=O)Nc2oc(C(C)C)nc2-c2ccccc2)[C@H](c2ccccc2)C1` [Example 44, 11-(2-isopropyl-4-phenyloxazol-5-yl)-3-((3S,4R)-1-(2-methoxyethyl)-4-phenylpyrrolidin-3-yl)urea], `COCCN1C[C@@H](NC(=O)Nc2sc(C(C)(C)O)nc2-c2ccccc2)[C@H](c2ccc(F)c(F)c2)C1` [Example 51, 1-((3S,4R)-4-(3,4-difluorophenyl)-1-(2-methoxyethyl)pyrrolidin-3-yl)-3-(2-(2-hydroxypropan-2-yl)-4-phenylthiazol-5-yl)urea] is lower in IC50: 100 to 1000 nM for the first, less than 100 nM for the second. The second is the more potent here.

`COCCN1C[C@@H](NC(=O)Nc2sc(C(=O)OC)nc2-c2ccccc2)[C@H](c2ccc(F)c(F)c2)C1` [Example 49, methyl 5-(3-((3S,4R)-4-(3,4-difluorophenyl)-1-(2-methoxyethyl)pyrrolidin-3-yl)ureido)-4-phenylthiazole-2-carboxylate] and `COCCN1C[C@@H](NC(=O)Nc2sc(C(=O)N(C)C)nc2-c2ccccc2)[C@H](c2ccc(F)c(F)c2)C1` [Example 52, 5-(3-((3S,4R)-4-(3,4-difluorophenyl)-1-(2-methoxyethyl)pyrrolidin-3-yl)ureido)-N,N-dimethyl-4-phenylthiazole-2-carboxamide] fall in the same range of IC50: 100 to 1000 nM for the first, 100 to 1000 nM for the second.

`COCCN1C[C@@H](NC(=O)Nc2nc(C)nn2-c2ccccc2)[C@H](c2ccc(F)c(F)c2)C1` [Example 53, 1-((3S,4R)-4-(3,4-difluorophenyl)-1-(2-methoxyethyl)pyrrolidin-3-yl)-3-(3-methyl-1-phenyl-1H-1,2,4-triazol-5-yl)urea] and `COCCN1C[C@@H](NC(=O)Nc2sc(-c3cnn(C)c3)nc2-c2ccccc2)[C@H](c2ccc(F)c(F)c2)C1` [Example 56, 1-((3S,4R)-4-(3,4-difluorophenyl)-1-(2-methoxyethyl)pyrrolidin-3-yl)-3-(2-(1-methyl-1H-pyrazol-4-yl)-4-phenylthiazol-5-yl)urea di(trifluoroacetate)] cannot be ordered by IC50: less than 100 nM for the first, less than 100 nM for the second.
